Data as given in publication PMC4032192 (Journal of Medicinal Chemistry, 2014).

Biological target: rat nNOS (Rattus norvegicus, UniProt P29476)
Experiment: oxyhemoglobin NO capture assay, rat nNOS
Assay type: biochemical

Sequence of rat nNOS (P29476 whole entry): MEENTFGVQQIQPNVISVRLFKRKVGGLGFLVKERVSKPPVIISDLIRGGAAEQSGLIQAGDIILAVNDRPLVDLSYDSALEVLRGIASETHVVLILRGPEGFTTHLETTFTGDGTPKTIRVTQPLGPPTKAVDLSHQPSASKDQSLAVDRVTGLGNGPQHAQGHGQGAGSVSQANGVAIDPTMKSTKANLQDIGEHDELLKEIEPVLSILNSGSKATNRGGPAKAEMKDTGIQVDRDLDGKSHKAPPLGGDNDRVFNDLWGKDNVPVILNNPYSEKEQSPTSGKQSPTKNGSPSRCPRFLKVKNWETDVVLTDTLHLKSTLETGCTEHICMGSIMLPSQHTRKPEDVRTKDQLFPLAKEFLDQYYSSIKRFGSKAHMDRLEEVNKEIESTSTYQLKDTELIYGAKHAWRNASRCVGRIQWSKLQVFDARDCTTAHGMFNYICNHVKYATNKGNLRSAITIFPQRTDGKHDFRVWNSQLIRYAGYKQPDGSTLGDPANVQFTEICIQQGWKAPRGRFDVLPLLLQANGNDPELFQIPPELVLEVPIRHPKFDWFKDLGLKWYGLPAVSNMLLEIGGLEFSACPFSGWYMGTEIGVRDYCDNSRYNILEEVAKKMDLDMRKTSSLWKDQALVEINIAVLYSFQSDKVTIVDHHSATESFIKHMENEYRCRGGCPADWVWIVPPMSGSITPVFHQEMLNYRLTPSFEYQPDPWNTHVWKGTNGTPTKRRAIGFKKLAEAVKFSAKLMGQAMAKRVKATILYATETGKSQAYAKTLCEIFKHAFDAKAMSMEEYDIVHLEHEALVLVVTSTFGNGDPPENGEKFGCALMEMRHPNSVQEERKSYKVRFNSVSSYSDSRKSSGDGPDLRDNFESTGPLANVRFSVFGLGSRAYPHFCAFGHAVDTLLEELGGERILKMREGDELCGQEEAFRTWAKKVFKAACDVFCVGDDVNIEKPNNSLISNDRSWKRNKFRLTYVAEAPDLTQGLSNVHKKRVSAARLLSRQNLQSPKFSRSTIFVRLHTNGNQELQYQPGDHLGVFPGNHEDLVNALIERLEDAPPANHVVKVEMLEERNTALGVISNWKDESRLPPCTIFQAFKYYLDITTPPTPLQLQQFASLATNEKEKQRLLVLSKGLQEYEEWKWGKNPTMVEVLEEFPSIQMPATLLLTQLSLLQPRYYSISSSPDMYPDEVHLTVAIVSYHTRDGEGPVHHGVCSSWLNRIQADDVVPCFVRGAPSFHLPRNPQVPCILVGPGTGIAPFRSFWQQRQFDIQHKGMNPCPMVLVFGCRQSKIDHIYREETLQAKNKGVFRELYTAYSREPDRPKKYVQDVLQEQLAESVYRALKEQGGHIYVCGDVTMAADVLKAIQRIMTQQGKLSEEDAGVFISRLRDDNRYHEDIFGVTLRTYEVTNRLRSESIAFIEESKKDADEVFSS

SMILES | Ki
Cc1cc(N)nc(CCc2cccc([C@H](N)Cc3cc(C)cc(N)n3)c2)c1 [Compound 3R, (R)-6-(2-Amino-2-(3-(2-(6-amino-4-methylpyridin-2-yl)ethyl)phenyl)ethyl)-4-methylpyridin-2-amine] | ~100 nM
Cc1cc(N)nc(CCc2cccc(C(O)Cc3cc(C)cc(N)n3)c2)c1 (centres unmarked) [Compound 4] | ~100 nM
